Some test systems named below: U-251; UO-31; SF-268; SN12C; RPMI-8226; RXF 393; UACC-257; MDA-MB-231; HCT-116; BT-549; MOLT-4; SNB-75; MCF7; MDA-MB-435; HOP-92; NCI-H23; MDA-N; SF-295; CAKI-1; SW-620.
Holding throughout (assay): DTP human tumour cell line panel, 48 h

SMILES strings stand for the structures.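 Results reflect a 48-hour exposure of cells in 96-well plates to compound at five concentrations. GI50: concentration for 50% inhibition of growth.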 The source made the active and inactive calls. No stated cut-off is given here; in the data, active = GI50 up to about 1.1 µM and inactive = higher. Some results are limits rather than exact numbers.

Broadly, the GI50 is the concentration that inhibits growth by half. For the compound `CC1(C)OCN(c2ccc(Cl)cc2)Cn2c1nc1ccccc12`, the GI50 in the assay with U-251 is 22.3 µM (inactive); with UO-31 it was 9.79 µM (inactive); in the assay with SF-268, 15.8 µM (inactive); in the assay with SN12C it was 70.5 µM (inactive); in the assay on RPMI-8226, 19 µM (inactive); with RXF 393, 62.1 µM (inactive). The GI50 is 39.1 µM (inactive) in the assay on UACC-257; 3.18 µM (inactive) with MDA-MB-231; 15.3 µM (inactive) with HCT-116; > 100 µM (inactive) in the assay with BT-549; 11.6 µM (inactive) in the assay with MOLT-4; > 100 µM (inactive) in the assay with SNB-75. The GI50 in the assay on MCF7 is 58.9 µM (inactive); in the assay on MDA-MB-435, 0.611 µM (active); in the assay on HOP-92, > 80.9 µM (inactive); with NCI-H23, 18.1 µM (inactive); with MDA-N, 3.05 µM (inactive).
Regarding `Cc1cc(=O)oc2cc(OCc3c(F)cccc3Cl)ccc12`, the GI50 in the assay on U-251 was 8.85 µM (inactive); in the assay on UO-31, > 100 µM (inactive); in the assay with SF-268, 21.4 µM (inactive); with SN12C, > 100 µM (inactive); in the assay with RXF 393 it was 7.23 µM (inactive); with UACC-257, 78.5 µM (inactive). In addition, the GI50 in the assay on MDA-MB-231 is 4.07 µM (inactive); with HCT-116 it was 4.41 µM (inactive); in the assay with BT-549, 28.2 µM (inactive); in the assay on SF-295, 17.5 µM (inactive); with SNB-75, 9.02 µM (inactive); in the assay on MCF7 it was 4.6 µM (inactive). The GI50 is 1.78 µM (inactive) in the assay with MDA-MB-435; 17.2 µM (inactive) with CAKI-1; 10.5 µM (inactive) in the assay with HOP-92; > 100 µM (inactive) in the assay on NCI-H23; 2.3 µM (inactive) in the assay with MDA-N.
On to `Oc1c(C2=N[C@H]3CCCC[C@@H]3N2)ccc2ccccc12`, for which the GI50 in the assay with U-251, with UO-31, in the assay on SF-268, in the assay on SN12C, in the assay on RPMI-8226 and with UACC-257 was > 100 µM (inactive) in each case. For the same compound, the GI50 with MDA-MB-231 was > 100 µM (inactive); in the assay on HCT-116, > 100 µM (inactive); in the assay on BT-549, > 100 µM (inactive); in the assay on SW-620, > 100 µM (inactive); with MOLT-4, > 100 µM (inactive); with SNB-75 it was > 69.2 µM (inactive). The GI50 with MCF7, in the assay on MDA-MB-435, with CAKI-1, in the assay with HOP-92, with NCI-H23 and with MDA-N was > 100 µM (inactive) in each case.
Take `O=C(c1cccs1)N(Cc1cccnc1)C(=S)N(Cc1cccnc1)C(=O)c1cccs1`: the GI50 in the assay on U-251 was 32.7 µM (inactive); in the assay with UO-31 it was > 100 µM (inactive); in the assay with SF-268, 35.6 µM (inactive); in the assay with SN12C, 32.6 µM (inactive); with RXF 393 it was > 100 µM (inactive); in the assay on UACC-257, > 100 µM (inactive). Further, the GI50 in the assay on MDA-MB-231 was > 100 µM (inactive); in the assay with HCT-116 it was 45.8 µM (inactive); with BT-549, > 100 µM (inactive); in the assay on SF-295, 32.2 µM (inactive); in the assay on SW-620, > 100 µM (inactive); in the assay with MOLT-4 it was > 100 µM (inactive). The GI50 was 37.8 µM (inactive) with SNB-75; 4.85 µM (inactive) in the assay on MCF7; > 100 µM (inactive) in the assay on MDA-MB-435; > 100 µM (inactive) with CAKI-1; > 100 µM (inactive) in the assay with HOP-92; > 100 µM (inactive) with NCI-H23. Besides, in the assay with MDA-N, the GI50 is 33.4 µM (inactive).
Turning to `CCCc1nc(Cl)c(Cl)c(Cl)n1`, the GI50 in the assay with U-251 was 14.7 µM (inactive); in the assay on UO-31, 2.71 µM (inactive); in the assay on SF-268, 11.9 µM (inactive); in the assay on SN12C, 19.6 µM (inactive); in the assay with RXF 393 it was 19.2 µM (inactive); in the assay with UACC-257, 32.7 µM (inactive). The GI50 with MDA-MB-231 is 19.3 µM (inactive); in the assay on HCT-116, 9.68 µM (inactive); in the assay with BT-549, 23.2 µM (inactive); with SF-295, > 60.4 µM (inactive); in the assay on SW-620, 14.8 µM (inactive); in the assay on MOLT-4, 12.4 µM (inactive). Further, the GI50 was 4.28 µM (inactive) with SNB-75; 16.1 µM (inactive) in the assay with MCF7; 20.1 µM (inactive) in the assay on MDA-MB-435; 10.7 µM (inactive) in the assay with CAKI-1; 21 µM (inactive) with HOP-92; 18.7 µM (inactive) with NCI-H23. Further, the GI50 with MDA-N is 33.8 µM (inactive).
Consider `COP(=O)(OC)[C@@](O)(c1ccccc1)[C@@H](O)[C@@H](O)c1ccccc1`, for which the GI50 is 88.5 µM (inactive) in the assay with U-251; > 100 µM (inactive) in the assay on UO-31; > 100 µM (inactive) in the assay with SF-268; > 100 µM (inactive) in the assay with SN12C; > 100 µM (inactive) in the assay with RXF 393; > 100 µM (inactive) in the assay with UACC-257. Besides, the GI50 in the assay on MDA-MB-231 is > 100 µM (inactive); in the assay with HCT-116, 29.3 µM (inactive); in the assay on BT-549, > 100 µM (inactive); in the assay on SF-295, > 100 µM (inactive); with SW-620, 44.7 µM (inactive); with SNB-75, > 100 µM (inactive). Besides, the GI50 in the assay with MCF7 is 27.6 µM (inactive); in the assay on MDA-MB-435, > 100 µM (inactive); in the assay on CAKI-1, > 100 µM (inactive); in the assay with HOP-92, > 100 µM (inactive); in the assay on NCI-H23, > 100 µM (inactive); in the assay with MDA-N it was 85.3 µM (inactive).
`Nc1c(Cl)cc(-c2nc3ccccc3s2)cc1Cl`: the GI50 in the assay with U-251, in the assay with UO-31, in the assay with SF-268, in the assay on SN12C, with RXF 393 and with UACC-257 was > 100 µM (inactive) each time. Further, the GI50 is 69 µM (inactive) with MDA-MB-231; > 100 µM (inactive) in the assay with HCT-116; > 100 µM (inactive) with BT-549; > 100 µM (inactive) in the assay on SF-295; > 100 µM (inactive) with SW-620; > 100 µM (inactive) with MOLT-4. The GI50 in the assay with SNB-75 was > 100 µM (inactive); in the assay with MCF7, 0.522 µM (active); in the assay with MDA-MB-435, > 100 µM (inactive); in the assay on HOP-92, > 100 µM (inactive); with MDA-N, > 100 µM (inactive).
As to `O=C(/C=C/c1ccc(Cl)cc1)c1ccc(Cl)s1`, the GI50 is 32.6 µM (inactive) in the assay on U-251; 51.8 µM (inactive) in the assay on UO-31; 72.1 µM (inactive) with SF-268; > 100 µM (inactive) in the assay with SN12C; 17.8 µM (inactive) with RPMI-8226; 23.2 µM (inactive) in the assay with RXF 393. In addition, the GI50 was > 100 µM (inactive) with UACC-257; 60.7 µM (inactive) with MDA-MB-231; 10.5 µM (inactive) with HCT-116; 27 µM (inactive) with BT-549; 78.3 µM (inactive) with SF-295; 22 µM (inactive) in the assay on SW-620. The GI50 is 27.7 µM (inactive) with MOLT-4; 39 µM (inactive) in the assay with SNB-75; 4.8 µM (inactive) with MCF7; > 10 µM (inactive) in the assay on MDA-MB-435; 82.4 µM (inactive) in the assay on HOP-92; 38.9 µM (inactive) with NCI-H23. Further, the GI50 in the assay with MDA-N was 28.4 µM (inactive).
